Read-outs that look alike come from different tables or passages of the source.

The target of series [1] is T1, H^+ /K^+ ATPase (Sus scrofa, UniProt P19156).
T1 construct: prepared from the stomach of pig; from tissue; host or cells: stomach of pig
Nature of the series: H^+ /K^+ ATPase Inhibitory Activity Assay. It is filed as biochemical, pig. Conditions: for inhibition at 10 µg/mL / inhibition at 5 µg/mL: read-out: H^+ /K^+ ATPase % Inhibition; for inhibition at 20 µg/mL: 20 μg/ml. How it is done: The inhibitory activity was determined in the following manner using H^+ /K^+ ATPase prepared from the stomach of pig.
H^+ /K^+ ATPase dilute solution (100 μl, 50 μg as protein) was added to PIPES-tris (pH 6.2) buffer solution (440 μl) containing 4 mM magnesium chloride and 20 mM potassium chloride. Further, 0.1% ethanol solution of nigericin (5 μl) was added. To the solution was added dimethyl sulfoxide (5 μl) and the mixture was incubated at 37° C. for 30 minutes. Then 10 mM PIPES-tris buffer solution (450 μl) containing 4 mM ATP disodium was added to initiate the reaction. 30 minutes later, 50% trichloroacetic acid (1 ml) was added to cease the reaction. […] On the other hand, a similar determination was carried out in the absence of potassium chloride, at which the reading of the absorbance is taken as C2. […] In that case, the readings of the absorbance in the presence and absence of potassium chloride are taken as T1 and T2, respectively.
% Inhibition (I) of the inhibiting substance (test compound) is calculated by the following equation.

For series [2] the following is noted: background statement; cited from earlier work.

T1 sequence (P19156 2-1034 limits assumed): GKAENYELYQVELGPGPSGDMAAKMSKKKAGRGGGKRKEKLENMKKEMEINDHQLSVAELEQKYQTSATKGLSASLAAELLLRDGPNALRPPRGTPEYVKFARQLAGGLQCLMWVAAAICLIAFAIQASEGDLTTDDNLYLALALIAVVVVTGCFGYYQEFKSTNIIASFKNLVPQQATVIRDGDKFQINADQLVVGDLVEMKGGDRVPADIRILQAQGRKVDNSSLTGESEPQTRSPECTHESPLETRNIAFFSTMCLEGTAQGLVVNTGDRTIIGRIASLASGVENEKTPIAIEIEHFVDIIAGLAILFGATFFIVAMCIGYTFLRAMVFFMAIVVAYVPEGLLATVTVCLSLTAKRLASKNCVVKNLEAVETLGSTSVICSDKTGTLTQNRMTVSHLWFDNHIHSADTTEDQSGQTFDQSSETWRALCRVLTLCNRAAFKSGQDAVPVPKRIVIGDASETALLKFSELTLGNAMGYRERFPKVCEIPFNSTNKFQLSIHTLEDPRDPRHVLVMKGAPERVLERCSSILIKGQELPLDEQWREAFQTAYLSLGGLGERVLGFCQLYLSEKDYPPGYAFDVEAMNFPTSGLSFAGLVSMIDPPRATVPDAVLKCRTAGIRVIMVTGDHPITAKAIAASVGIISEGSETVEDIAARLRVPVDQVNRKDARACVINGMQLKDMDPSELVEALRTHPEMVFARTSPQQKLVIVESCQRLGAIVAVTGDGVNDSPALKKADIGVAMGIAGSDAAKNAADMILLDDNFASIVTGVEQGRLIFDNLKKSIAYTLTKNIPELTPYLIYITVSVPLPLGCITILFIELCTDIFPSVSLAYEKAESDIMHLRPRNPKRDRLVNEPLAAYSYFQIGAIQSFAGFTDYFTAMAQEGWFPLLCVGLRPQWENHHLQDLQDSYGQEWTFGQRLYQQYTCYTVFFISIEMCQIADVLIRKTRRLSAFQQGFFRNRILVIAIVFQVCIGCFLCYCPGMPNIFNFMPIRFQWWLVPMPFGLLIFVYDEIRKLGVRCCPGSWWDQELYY
T1 sequence (P18434 whole entry partner): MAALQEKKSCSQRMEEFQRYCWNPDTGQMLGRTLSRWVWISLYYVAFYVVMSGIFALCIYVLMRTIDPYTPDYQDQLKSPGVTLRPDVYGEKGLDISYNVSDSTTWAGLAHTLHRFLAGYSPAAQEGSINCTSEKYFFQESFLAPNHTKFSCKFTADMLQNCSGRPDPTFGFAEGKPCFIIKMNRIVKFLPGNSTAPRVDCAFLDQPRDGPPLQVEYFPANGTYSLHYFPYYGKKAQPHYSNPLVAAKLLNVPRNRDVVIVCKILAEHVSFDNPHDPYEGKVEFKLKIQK

For `c1ccc(CCNCCc2c(CCCCc3cc4ccccc4[nH]3)[nH]c3ccccc23)cc1` [Example 3, 3-(2-Phenethylaminoethyl)-2,2'-tetramethylenediindole], the inhibition at 10 µg/mL in series [1] (10 μg/ml) was determined as 97%.
In the case of `COc1ccc2[nH]c([S+]([O-])Cc3ncc(C)c(OC)c3C)nc2c1` (stereo not shown) [Omeprazole, omeprazole], the “occurrence of side effect (omeprazole)” value in series [2] was “occurrence of carcinoid”.
In turn, `c1ccc(CNCCc2c(CCCCc3[nH]c4ccccc4c3CCNCc3ccccc3)[nH]c3ccccc23)cc1` [Example 7, 3,3'-Di(2-benzylaminoethyl)-2,2'-tetramethylenediindole] had an inhibition at 20 µg/mL in series [1] of 76%.
On to `c1ccc2[nH]c(CCCCCCc3[nH]c4ccccc4c3CCN3CCCCC3)cc2c1` [Example 2, 3-(2-Piperidinoethyl)-2,2'-hexamethylenediindole], for which the inhibition at 10 µg/mL in series [1] (10 μg/ml) was determined as 84%.
Regarding `c1ccc(CCNCCc2c(CCCCc3[nH]c4ccccc4c3CCNCCc3ccccc3)[nH]c3ccccc23)cc1` [Example 13, 3,3'-Di(2-phenethylaminoethyl)-2,2'-tetramethylenediindole], in series [1] (5 μg/ml), the inhibition at 5 µg/mL turned out to be 74%.
As to `c1ccc(CCCNCCc2c(CCCCc3[nH]c4ccccc4c3CCNCCCc3ccccc3)[nH]c3ccccc23)cc1` [Example 19, 3,3'-Di(2-(3-phenylpropylamino)ethyl)-2,2'-tetramethylenediindole], the inhibition at 10 µg/mL in series [1] (10 μg/ml) worked out at 98%.
`c1ccc2[nH]c(CCCCc3[nH]c4ccccc4c3CCN3CCOCC3)cc2c1` [Example 5, 3-(2-Morpholinoethyl)-2,2'-tetramethylenediindole]: in series [1], the inhibition at 20 µg/mL turned out to be 68%.
Take `c1ccc2[nH]c(CCCCc3[nH]c4ccccc4c3CCNCCc3c[nH]c4ccccc34)cc2c1` [Example 16, 3-(2-(2-(3-Indolyl)ethylamino)ethyl)-2,2'-tetramethylenediindole]: the inhibition at 5 µg/mL in series [1] (5 μg/ml) turned out to be 71%.
For the compound `c1ccc2c(CCN3CCCCC3)c(CCCCCCc3[nH]c4ccccc4c3CCN3CCCCC3)[nH]c2c1` [Example 1, 3,3'-Di(2-piperidinoethyl)-2,2'-hexamethylenediindole], the inhibition at 20 µg/mL in series [1] is 5%.
With `c1ccc2[nH]c(CCCCCCCCc3[nH]c4ccccc4c3CCN3CCCCC3)cc2c1` [Example 4, 3-(2-Piperidinoethyl)-2,2'-octamethylenediindole], the inhibition at 10 µg/mL in series [1] (10 μg/ml) amounted to 91%.
Take `CN(CCc1c(CCCCc2cc3ccccc3[nH]2)[nH]c2ccccc12)Cc1ccccc1` [Example 18, 3-(2-(N-Methylbenzylamino)ethyl)-2,2'-tetramethylenediindole]: the inhibition at 10 µg/mL in series [1] turned out to be 100%.
In the case of `CN(CCc1c(CCCCc2[nH]c3ccccc3c2CCN(C)Cc2ccccc2)[nH]c2ccccc12)Cc1ccccc1` [Example 17, 3,3'-Di(2-(N-methylbenzylamino)ethyl)-2,2'-tetramethylenediindole], in series [1], the inhibition at 5 µg/mL stood at 38%.
Compound `c1ccc(CNCCc2c(CCCCc3cc4ccccc4[nH]3)[nH]c3ccccc23)cc1` [Example 8, 3-(2-Benzylaminoethyl)-2,2'-tetramethylenediindole] returned an inhibition at 20 µg/mL in series [1] of 100%.

Values taken from patent US5326879A, “Indole derivatives” (priority 1991, dated 1994).
